Data reported in PMC10744608, “Simplified Synthesis of Renieramycin T Derivatives to Target Cancer Stem Cells via β-Catenin Proteasomal Degradation in Human Lung Cancer” (Marine Drugs, 2023).

How the values were obtained:
Type in all cases: cell-based, human
[1] = tested on: A549, H23, and H292 cells; experiment: Immunofluorescence of stem cell markers and transcription factors; conditions: A549, H23, and H292, 50 nM, 24 h
Experimental: A549, H23, and H292 NSCLC cells were seeded at a concentration of 1 × 10^4 cells per well in 96-well plates. The cells were exposed to different concentrations of DH_32 (0, 25, 50, and 100 nM) for 24 h, after which the medium was removed. Following that, the cells were subjected to fixation with 4% paraformaldehyde for 15 min. The cells were permeabilization with 0.5% Triton-X for 5 min, followed by the blocking of non-specific proteins with 10% FBS in 0.1% Triton-X PBS for 1 h at room temperature. The cells were exposed to a 1:400 dilution of primary antibodies (CD133, CD44, ALDH1A1, OCT4, NANOG, SOX2, and β-catenin) and incubated at 4 °C overnight. On the subsequent day, the cells were treated with a 1:500 dilution of the following secondary antibodies: Alexa Fluor 594-conjugated goat anti-rabbit IgG (H+L) (Invitrogen) and Alexa Fluor 488-conjugated goat anti-mouse IgG (H+L) (Invitrogen). Simultaneously, the localization of nuclei was stained with Hoechst 33342 for 1 h at room temperature. The cells were rinsed with PBS and then covered with 50% glycerol. The images were captured by a fluorescence microscope (Olympus IX 51 with DP70; Olympus America Inc., Center valley, PA, USA). The fluorescence intensity was measured by Image J software. RT acted as the positive control for this experiment.

[2] = tested on: H23 cells; experiment: RT-qPCR of stemness transcription factors; conditions: H23, 6 h
Experimental: (§1) RNA extraction was performed on DH_32-treated cells (3 × 10^5 cells per well in 6-well plates) using GENEzol as the reagent. Total RNA was used to synthesize cDNA through the application of SuperScript III reverse transcriptase from Invitrogen. Following cDNA synthesis, 100 ng of the cDNA was utilized for RT-qPCR, employing Luna Universal qPCR Master Mix from NEB, UK, in a final volume of 20 µL. The reaction mixture was conducted using the CFX 96 real-time PCR system from Bio-Rad, located in Hercules, CA. For the RT-qPCR, the protocol included an initial denaturation step at 95 °C for 1 min, followed by 45 cycles involving denaturation at 95 °C for 10 s, annealing and extension at 60 °C for 30 s. Melting curve analysis was employed to assess the specificity of the primers. The targeted primer genes were: The gene expression levels were normalized using the GAPDH gene as an internal control. The relative mRNA gene expression level for each gene was determined based on the comparative Cq values. RT acted as the positive control for this experiment.

[3] = tested on: H292 cells; experiment: RT-qPCR of stemness transcription factors; conditions: H292, 6 h
Experimental: as §1

[4] = tested on: A549 cells; experiment: RT-qPCR of stemness transcription factors; conditions: A549, 50 nM, 6 h, normalized to GAPDH
Experimental: as §1

COC1=C(C)C(=O)C2=C(C1=O)[C@@H]1CN(Cc3ccc4ccccc4c3)[C@@H](C#N)[C@H](C2)N1C [DH_32, (1R,4R,5S)-9-methoxy-8,11-dimethyl-3-(naphthalen-2-ylmethyl)-7,10-dioxo-1,2,3,4,5,6,7,10-octahydro-1,5-epiminobenzo[d]azocine-4-carbonitrile]
fluorescence signals of stem cell markers CD133, CD44, and ALDH1A1 [1]: approximately 0.5 fold | fluorescence signals of stem cell transcription factors OCT4, NANOG, and SOX2 [1]: approximately 0.5 fold | mRNA of OCT4, NANOG, and SOX2 [2]: significantly decreased | mRNA of OCT4, NANOG, and SOX2 [3]: significantly decreased | mRNA expression level of NANOG [4]: 0.4 fold | mRNA expression level of OCT4 [4]: 0.5 fold | mRNA expression level of SOX2 [4]: 0.3 fold
